The source of these data is ChEMBL document CHEMBL6109151, “Discovery of a Novel Dihydroisoquinolinone Derivative as a Potent CDK9 Inhibitor Capable of Overcoming L156F Mutant for the Treatment of Hematologic Malignancies” (J Med Chem, 2025).

SMILES strings stand for the structures.

Common to all, as to conditions: male, Sprague-Dawley, rat, iv, 1 mg/kg
Data set [1] can be described thus: in vivo.
A short description of data set [2]: in vivo. This is another data set of the same source.
Data set [3] is described as follows: in vivo. This is another data set of the same source.
A short description of data set [4]: in vivo. The source holds these as a separate data set.

For `COc1cc(F)ccc1-c1cc(Nc2cc(CS(C)(=N)=O)ccn2)ncc1F` (centres undefined) [ENITOCICLIB], in the data set “in vivo [1]”, the half-life (commonly the time needed for the level to fall by half in the phase considered) at 8 h was 66 min. For the same compound, in “in vivo [2]”, the clearance (usually the rate of elimination divided by the concentration) at 8 h is 14 mL/min/kg. Also, in “in vivo [3]”, the AUC(0-t) – broadly, exposure summed from dosing to a finite time, without extrapolation to infinity – at 8 h amounted to 1190 ng·h/mL. Further, the Vd – broadly, a proportionality between amount in the body and measured concentration, not a real space – at 8 h in “in vivo [4]” worked out at 1.11 L/kg.
